Experimental findings from patent publication US8497262B2, “Therapeutic pyrazolonaphthyridine derivatives” (Dart NeuroScience (Cayman) Ltd, priority 2007, dated 2013) are described below.

Structures are written as SMILES. Bounds are passed on as bounds.

The test system of one assay is GABAA receptors. The assay is described as follows: Electrophysiology assay (two-electrode voltage clamp, Xenopus oocytes expressing GABAA receptors). The format is cell-based. The settings on record: positive (Pos) or negative (Neg) modulation of GABA EC10 current at a screening concentration of 10 μM; receptor subtype not stated. How it is done: The modulation of GABAA function is determined by changes in current as determined in an electrophysiology assay, as is detailed below.
mRNA was prepared from lyophilized plasmid pellets containing cDNA inserts encoding the specific GABAA receptor subunit. cDNAs encoding the α2, α3, and γ3 subunits were subcloned into pBluescript, SK^−. cDNAs encoding the α1 and α5 subunits were subcloned into prC while cDNA encoding the β2 subunit was subcloned into pcDNA1. The cDNA construct encoding the γ2s subunit is in the pGH19 expression construct. Overnight cultures of transformed DH5a bacterial cells were performed to grow sufficient quantities for maxiprep isolation of the plasmid cDNA. The resulting plasmid cDNA was linearized by digestion with an appropriate restriction enzyme that cleaves distal to the cDNA insert (XbaI for α1,2, β2, and γ3 or NotI for α3,5 and γ2, respectively). Following digestion, plasmid cDNA was treated with proteinase K and extracted with phenol/chloroform/isoamyl alcohol, followed by ethanol precipitation. cDNA quality was assessed by agarose-gel electrophoresis (1.5% agarose gel). Samples were stored at −20° C. until use. In vitro transcription was performed with T7 RNA polymerase. mRNA was then stored at −80° C. until use. Plasmids were linearized with appropriate restriction enzymes before in vitro transcription using the Message Machine kit (Ambion, Austin, Tex.).
GABAA receptor expression in Xenopus oocytes: Following 45 min of 0.15% Tricaine anesthesia, an ovarian section containing the follicular oocytes was removed from the frog through a lateral abdominal incision. Oocytes were immediately placed in a calcium-free solution (NaCl 96 mM, MgCl2 1 mM, KCl 2 mM, Hepes 50 mM, pyruvate 2.5 mM, gentamycin 100 μg/mL, penicillin-streptomycin 50 U/mL, pH 7.4). Following 1.5-2 hour incubation in 0.2% collagenase (type II, Sigma Chemical Co., St. Louis, Mo.) at room temperature, individual Dumont stage V and VI oocytes were transferred to an incubator and maintained overnight in Barth's solution (NaCl 84 mM, NaHCO3 2.4 mM, MgSO4 0.82 mM, KCl 1 mM, Ca(NO3)2 0.33 mM, CaCl2 0.41 mM, Tris/HCl 7.5 mM, pyruvate 2.5 mM, gentamycin 50 μg/mL, penicillin-streptomycin, 100 units/mL, pH 7.4) at 18-20° C. and used for experiments 1-5 days post-injection. Oocytes were injected solution using an electronic microinjector (Drummond, Broomall, Pa.) with […] of RNA containing 0.3-0.5 ng of each subunit RNA in a 1:1:1 ratio. The injected oocytes were used for experiments after 1-5 days of incubation in Barth's solution at 18-20° C.
Measurements of ion currents from oocytes expressing GABAA receptors were performed using a Warner two-electrode voltage-clamp amplifier (Warner Instruments, Inc., Foster City, Calif.) (Park-Chung, M., et al. (1999) Brain Res. 830: 72-87 incorporated herein in its entirety). Microelectrodes were fabricated from borosilicate glass capillaries with a programmed pipette puller (Sutter Instrument Co., CA). Microelectrode resistance was 1-3 MΩ when filled with 3 M KCl. The oocyte recording chamber was continuously perfused with Ringer solution. Oocytes were clamped at a holding potential of −70 mV during data acquisition. The membrane current was filtered at 10 Hz and sampled at 100 Hz. Compounds were applied by a gravity-driven external perfusion system. The working volume of the recording chamber was 30 μL and the rate of the perfusion was approximately 50 μL/sec. Compound application was 10-20 sec followed by a 90 sec wash. Data acquisition and external perfusion was computer controlled by custom-developed software. All experiments were performed at room temperature (22-24° C.). Dose-response data from each oocyte were fitted to the Hill equation by non-linear regression using the equation: IGABA=Emax/(1+(EC50/c)^n^H) Emax is the maximum response, EC50 is the concentration producing 50% of the maximal response, nH is the Hill coefficient and c is the concentration of agonist. […]

Assay [1] has as its target GABAA central benzodiazepine receptor. The assay is described as follows: Benzodiazepine binding assay ((3H)-flunitrazepam displacement). The settings on record: read-out: BZ binding assay (IC50); rat whole brain (except cerebellum) membranes, 1 nM (3H)-flunitrazepam, 3-concentration dose response curve.

Broadly, the IC50 is the concentration that inhibits the measured activity by half. As for `O=c1c2c[nH]c3ccc(N4CCNCC4)nc3c-2nn1-c1ccccc1` [6a, 2-Phenyl-8-(piperazin-1-yl)-2,5-dihydro-pyrazolo[4,3-c][1,5]naphthyridin-3-one], the EP result in the assay on GABAA receptors is “Neg”. Moreover, in assay [1], the half-maximal inhibitory concentration (IC50) is less than 1000 nM.

For the compound `CN1CCN(c2ccc3[nH]cc4c(=O)n(-c5ccccc5)nc-4c3n2)CC1` [6b, 8-(4-Methyl-piperazin-1-yl)-2-phenyl-2,5-dihydro-pyrazolo[4,3-c]-[1,5]naphthyridin-3-one], the EP result with GABAA receptors is listed as “Neg”. The 50% inhibitory concentration (IC50) in assay [1] is less than 1000 nM.

Consider `O=c1c2c[nH]c3ccc(N4CCOCC4)nc3c-2nn1-c1ccccc1` [6c, 8-Morpholin-4-yl-2-phenyl-2,5-dihydro-pyrazolo[4,3-c][1,5]naphthyridin-3-one], for which the EP result in the assay on GABAA receptors is “Neg”. In assay [1], the IC50 was less than 1 nM.

Turning to `O=c1c2c[nH]c3ccc(N4CCC(O)CC4)nc3c-2nn1-c1ccccc1` [6d, 8-(4-Hydroxy-piperidin-1-yl)-2-phenyl-2,5-dihydro-pyrazolo[4,3-c][1,5]naphthyridin-3-one], the 50% inhibitory concentration (IC50) in assay [1] is less than 1 nM.

Turning to `CC1CN(c2ccc3[nH]cc4c(=O)n(-c5ccccc5)nc-4c3n2)CCN1` (stereo not shown) [6e, 8-(3-Methyl-piperazin-1-yl)-2-phenyl-2,5-dihydro-pyrazolo[4,3-c][1,5]naphthyridin-3-one], the IC50 in assay [1] was less than 1000 nM.

Turning to `O=c1c2c[nH]c3ccc(N4CCCC(O)C4)nc3c-2nn1-c1ccccc1` (stereo not shown) [6f, 8-(3-Hydroxy-piperidin-1-yl)-2-phenyl-2,5-dihydro-pyrazolo[4,3-c][1,5]naphthyridin-3-one], the IC50 in assay [1] was less than 1000 nM.

As for `O=c1c2c[nH]c3ccc(N4CCN(c5ccc(F)cc5)CC4)nc3c-2nn1-c1ccccc1` [6g, 8-[4-(4-Fluoro-phenyl)-piperazin-1-yl]-2-phenyl-2,5-dihydro-pyrazolo[4,3-c][1,5]naphthyridin-3-one], in assay [1], the IC50 was less than 1000 nM.

Regarding `O=c1c2c[nH]c3ccc(N4CCCNCC4)nc3c-2nn1-c1ccccc1` [6h, 8-[1,4]-Diazepan-1-yl-2-phenyl-2,5-dihydro-pyrazolo[4,3-c][1,5]naphthyridin-3-one], the IC50 in assay [1] is less than 1000 nM.

For `O=c1c2c[nH]c3ccc(N4CCCC(CO)C4)nc3c-2nn1-c1ccccc1` (stereo not shown) [6i, 8-(3-Hydroxymethyl-piperidin-1-yl)-2-phenyl-2,5-dihydro-pyrazolo[4,3-c][1,5]naphthyridin-3-one], the IC50 in assay [1] was less than 1 nM.

Turning to `O=C1CN(c2ccc3[nH]cc4c(=O)n(-c5ccccc5)nc-4c3n2)CCN1` [6j, 8-(3-Oxo-piperazin-1-yl)-2-phenyl-2,5-dihydro-pyrazolo[4,3-c][1,5]naphthyridin-3-one], in assay [1], the concentration for half-maximal inhibition (IC50) is less than 1000 nM.

`O=c1c2c[nH]c3ccc(N4CCCC4)nc3c-2nn1-c1ccccc1` [6k, 2-Phenyl-8-pyrrolidin-1-yl-2,5-dihydro-pyrazolo[4,3-c][1,5]naphthyridin-3-one]: the half-maximal inhibitory concentration (IC50) in assay [1] is less than 1 nM.

Regarding `O=c1c2c[nH]c3ccc(N4CCN(c5ccccc5)CC4)nc3c-2nn1-c1ccccc1` [6l, 2-Phenyl-8-(4-phenyl-piperazin-1-yl)-2,5-dihydro-pyrazolo[4,3-c][1,5]naphthyridin-3-one], in the assay with GABAA receptors, the EP result is reported as “Pos”. For the same compound, in assay [1], the concentration for half-maximal inhibition (IC50) is less than 1000 nM.

On to `CC1CN(c2ccc3[nH]cc4c(=O)n(-c5ccccc5)nc-4c3n2)CC(C)O1` (stereo not shown) [6m, 8-(2,6-Dimethyl-morpholin-4-yl)-2-phenyl-2,5-dihydro-pyrazolo[4,3-c][1,5]naphthyridin-3-one], for which the EP result in the assay on GABAA receptors is reported as “Pos”. For the same compound, the IC50 in assay [1] is less than 1000 nM.

On to `CN1CCN(c2ccc3[nH]cc4c(=O)n(-c5ccccn5)nc-4c3n2)CC1` [6n, 8-(4-Methyl-piperazin-1-yl)-2-pyridin-2-yl-2,5-dihydro-pyrazolo[4,3-c][1,5]naphthyridin-3-one], for which the half-maximal inhibitory concentration (IC50) in assay [1] is less than 1000 nM.

Consider `O=c1c2c[nH]c3ccc(N4CCOCC4)nc3c-2nn1-c1ccccn1` [6o, 8-Morpholin-4-yl-2-pyridin-2-yl-2,5-dihydro-pyrazolo[4,3-c][1,5]naphthyridin-3-one], for which the IC50 in assay [1] was less than 1000 nM.

With `CN1CCCN(c2ccc3[nH]cc4c(=O)n(-c5ccccn5)nc-4c3n2)CC1` [6p, 8-(4-Methyl-[1,4]diazepan-1-yl)-2-pyridin-2-yl-2,5-dihydro-pyrazolo[4,3-c][1,5]naphthyridin-3-one], the half-inhibitory concentration (IC50) in assay [1] is less than 1000 nM.

Consider `CC1CN(c2ccc3[nH]cc4c(=O)n(-c5ccccn5)nc-4c3n2)CCN1` (stereo not shown) [6q, 8-(3-Methyl-piperazin-1-yl)-2-pyridin-2-yl-2,5-dihydro-pyrazolo[4,3-c][1,5]naphthyridin-3-one], for which, in the assay with GABAA receptors, the EP result is reported as “Pos”. For the same compound, in assay [1], the IC50 is less than 1000 nM.

In the case of `O=c1c2c[nH]c3ccc(N4CCC(O)CC4)nc3c-2nn1-c1ccccn1` [6r], the IC50 in assay [1] was less than 1 nM.

Turning to `O=c1c2c[nH]c3ccc(N4CCNCC4)nc3c-2nn1-c1ccccn1` [6s, 8-piperazin-1-yl-2-pyridin-2-yl-2,5-dihydro-pyrazolo[4,3-c][1,5]naphthyridin-3-one], the EP result in the assay on GABAA receptors is reported as “Pos”. Moreover, the IC50 in assay [1] was less than 1000 nM.

Turning to `COc1ccc(-n2nc3c4nc(N5CCN(C)CC5)ccc4[nH]cc-3c2=O)cc1` [6t, 2-(4-Methoxy-phenyl)-8-(4-methyl-piperazin-1-yl)-2,5-dihydro-pyrazolo[4,3-c][1,5]naphthyridin-3-one], in the assay on GABAA receptors, the EP result was “Neg”. For the same compound, in assay [1], the IC50 was less than 1 nM.

In the case of `O=c1c2c[nH]c3cc(N4CCNCC4)ncc3c-2nn1-c1ccccc1` [compound 14, 2-Phenyl-7-(piperazin-1-yl)-2,5-dihydro-pyrazolo[4,3-c][1,6]naphthyridin-3-one], in the assay on GABAA receptors, the EP result is given as “Neg”. Moreover, in assay [1], the half-inhibitory concentration (IC50) is more than 1000 nM.

On to `O=c1c2c[nH]c3c(N4CCNCC4)nccc3c-2nn1-c1ccccc1` [compound 17, 2-Phenyl-6-(piperazin-1-yl)-2,5-dihydro-pyrazolo[4,3-c][1,7]naphthyridin-3-one], for which the IC50 in assay [1] is more than 1000 nM.
